These results are taken from US20240101572A1, “DIHYDROOXADIAZINONE COMPOUND AND PHARMACEUTICAL USE THEREOF” (Japan Tobacco Inc., priority 2022, published 2024).

Usually IC50 stands for the concentration that inhibits the measured activity by half. A word on the inhibition: it is the change of the read-out against control, counted positive when it falls.

Each structure is given as a SMILES string. Read-outs that look alike come from different tables or passages of the source.

One experiment addresses full-length human PLD1 (Homo sapiens (Human), UniProt Q13393). The experiment is described as follows: Evaluation of human PLD1 enzyme inhibitory activity (Amplex Red / choline oxidase fluorescence). The experiment is classed as biochemical. In short, it runs like this: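 Fluorescence read-out couples choline to Amplex Red via choline oxidase and peroxidase after a 60 min room-temperature reaction. Enzyme: FLAG-tagged full-length human PLD1 from Expi293F cells, anti-FLAG purified; substrate diheptanoyl phosphatidylcholine; HEPES pH 7.5 assay buffer with 0.01% NP-40, 0.1% BSA, 5% DMSO final.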

Another experiment concerns the target full-length human PLD2 (Homo sapiens (Human), UniProt O14939). The experiment is described as follows: Evaluation of human PLD2 enzyme inhibitory activity (Amplex Red / choline oxidase fluorescence). Format: biochemical. The method in brief:
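Released choline was read by Amplex Red fluorescence coupled to choline oxidase and HRP after a 60 min room-temperature reaction. Substrate was diheptanoyl phosphatidylcholine, added as a 6 mmol/L solution, and enzyme was FLAG-tagged full-length human PLD2 from Expi293F, added as a 6 nmol/L solution. Buffer was 50 mM HEPES pH 7.5 with 5% final DMSO.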

Where [1] appears, read: column 1 of continuation tables 2-12 to 2-14, read-out: human PLD1 enzyme inhibitory activity IC50.
Where [2] appears, read: column 2 of continuation tables 2-12 to 2-14, read-out: human PLD2 enzyme inhibitory activity IC50.
Where [3] appears, read: read-out: human PLD1 % inhibition at 10 μM.
[4] abbreviates: read-out: inhibition rate of PLD1 at 10 μM compound.
Setting [5] is: read-out: human PLD2 % inhibition at 10 μM.
[6] abbreviates: read-out: inhibition rate of PLD2 at 10 μM compound.
[7] abbreviates: full-length human PLD1 enzyme, read-out: PLD1 IC50.
[8] abbreviates: full-length human PLD2 enzyme, read-out: PLD2 IC50.

Chain of full-length human PLD2 (O14939 whole entry): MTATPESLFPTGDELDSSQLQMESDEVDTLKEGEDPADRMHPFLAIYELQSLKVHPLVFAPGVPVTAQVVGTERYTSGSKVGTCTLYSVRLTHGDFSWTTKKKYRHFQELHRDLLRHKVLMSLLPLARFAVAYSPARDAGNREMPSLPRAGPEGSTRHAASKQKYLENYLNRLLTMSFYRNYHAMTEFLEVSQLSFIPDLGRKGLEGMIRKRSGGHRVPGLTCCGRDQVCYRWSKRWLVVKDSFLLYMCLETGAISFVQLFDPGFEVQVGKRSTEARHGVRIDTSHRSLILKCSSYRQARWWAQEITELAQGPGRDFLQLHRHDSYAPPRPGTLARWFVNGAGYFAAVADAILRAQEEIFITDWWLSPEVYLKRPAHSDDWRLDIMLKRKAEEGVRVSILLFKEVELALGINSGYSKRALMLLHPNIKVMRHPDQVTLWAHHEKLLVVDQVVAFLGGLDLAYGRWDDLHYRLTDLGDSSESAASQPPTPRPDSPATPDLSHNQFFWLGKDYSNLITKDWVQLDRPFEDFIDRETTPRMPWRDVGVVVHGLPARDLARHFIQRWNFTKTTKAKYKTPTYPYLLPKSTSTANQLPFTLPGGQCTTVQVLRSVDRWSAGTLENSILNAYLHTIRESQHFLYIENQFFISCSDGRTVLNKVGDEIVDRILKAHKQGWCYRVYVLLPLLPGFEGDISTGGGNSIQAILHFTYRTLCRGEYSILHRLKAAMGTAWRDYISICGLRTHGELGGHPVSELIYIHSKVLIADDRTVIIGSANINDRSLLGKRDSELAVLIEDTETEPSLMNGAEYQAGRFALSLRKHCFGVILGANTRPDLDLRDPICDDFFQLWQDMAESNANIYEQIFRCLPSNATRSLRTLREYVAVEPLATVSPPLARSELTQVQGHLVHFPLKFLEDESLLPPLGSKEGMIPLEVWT
Chain of full-length human PLD1 (Q13393 other isoform, or with tags, fused parts or gaps): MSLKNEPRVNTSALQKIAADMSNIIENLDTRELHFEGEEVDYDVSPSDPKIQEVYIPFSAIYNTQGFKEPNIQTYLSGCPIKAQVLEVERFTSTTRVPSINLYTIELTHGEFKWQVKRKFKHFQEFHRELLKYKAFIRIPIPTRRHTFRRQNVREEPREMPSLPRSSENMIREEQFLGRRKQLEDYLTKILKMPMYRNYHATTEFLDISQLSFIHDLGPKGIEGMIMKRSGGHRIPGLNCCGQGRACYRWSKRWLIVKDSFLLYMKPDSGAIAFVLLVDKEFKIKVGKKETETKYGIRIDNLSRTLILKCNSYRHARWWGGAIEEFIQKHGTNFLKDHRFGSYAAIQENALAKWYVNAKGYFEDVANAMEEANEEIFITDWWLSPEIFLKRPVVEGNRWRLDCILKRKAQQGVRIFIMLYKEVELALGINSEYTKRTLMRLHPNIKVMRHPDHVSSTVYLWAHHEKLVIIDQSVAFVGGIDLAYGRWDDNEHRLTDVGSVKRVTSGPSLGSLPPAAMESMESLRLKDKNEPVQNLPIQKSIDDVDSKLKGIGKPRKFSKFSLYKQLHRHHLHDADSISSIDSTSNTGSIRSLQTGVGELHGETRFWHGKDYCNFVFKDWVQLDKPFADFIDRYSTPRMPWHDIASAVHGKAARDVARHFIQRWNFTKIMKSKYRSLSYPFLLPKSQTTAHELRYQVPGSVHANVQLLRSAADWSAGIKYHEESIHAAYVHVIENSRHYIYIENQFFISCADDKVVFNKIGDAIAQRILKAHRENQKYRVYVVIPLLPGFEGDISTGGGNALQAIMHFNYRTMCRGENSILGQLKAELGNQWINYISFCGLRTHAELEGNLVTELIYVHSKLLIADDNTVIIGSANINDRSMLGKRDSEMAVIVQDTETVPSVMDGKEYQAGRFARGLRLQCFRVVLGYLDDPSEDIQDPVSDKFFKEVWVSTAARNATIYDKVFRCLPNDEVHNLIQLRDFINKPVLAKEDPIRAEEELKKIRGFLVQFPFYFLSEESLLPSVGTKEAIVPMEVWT

In the case of `[2H]C([2H])([2H])NC(=O)C(=O)N[C@@H](C)C[C@]1(C#N)CC[C@@]2(CC1)OC(=O)NN=C2c1cc(F)ccc1Br` [Example 2-133], the IC50 at full-length human PLD1 (setting [1]) was 14 nM; at full-length human PLD2 (setting [2]) it was less than 10 nM.
Turning to `[2H]C([2H])([2H])NC(=O)C(=O)N[C@@H](C)C[C@]1(C#N)CC[C@@]2(CC1)OC(=O)NN=C2c1ccc(F)cc1Br` [Example 2-134], the IC50 on full-length human PLD1 (setting [1]) was 18 nM; at full-length human PLD2 (setting [2]), less than 10 nM.
In the case of `[2H]C([2H])([2H])NC(=O)C(=O)N[C@@H](C)C[C@]1(OC)CC[C@@]2(CC1)OC(=O)NN=C2c1ccc(F)cc1Br` [Example 2-135], the values for the IC50 on full-length human PLD1 (setting [1]) and at full-length human PLD2 (setting [2]) were 20 nM and less than 10 nM, respectively.
For `[2H]C([2H])([2H])NC(=O)C(=O)N[C@@H](C)C[C@]1(C#N)CC[C@@]2(CC1)OC(=O)NN=C2c1cc(OC(F)F)c(F)cc1Br` [Example 2-138], in that order: 14 nM and less than 10 nM.
For `[2H]C([2H])([2H])NC(=O)C(=O)N[C@@H](C)C[C@]1(C#N)CC[C@@]2(CC1)OC(=O)NN=C2c1cc(F)c(F)cc1Br` [Example 2-140], the IC50 at full-length human PLD1 (setting [1]) is 17 nM; at full-length human PLD2 (setting [2]), less than 10 nM.
As to `CNC(=O)C(=O)N[C@H](C)C[C@H]1CC[C@@]2(CC1)OC(=O)NN=C2c1cc(C#N)ccc1Br` [Example 2-150], the inhibition at 10 µM is 25% on full-length human PLD1 (setting [3]), 25% on full-length human PLD1 (setting [4]), 30% on full-length human PLD2 (setting [5]) and 30% on full-length human PLD2 (setting [6]).
On to `[2H]C([2H])([2H])NC(=O)C(=O)N[C@@H](C)C[C@]1(C#N)CC[C@@]2(CC1)OC(=O)NN=C2c1cccc(F)c1Br` [Example 2-152], for which the IC50 on full-length human PLD1 (setting [1]) is 16 nM; on full-length human PLD2 (setting [2]), less than 10 nM.
The corresponding values for `[2H]C([2H])([2H])NC(=O)C(=O)N[C@@H](C)C[C@]1(C#N)CC[C@@]2(CC1)OC(=O)NN=C2c1ccccc1Br` [Example 2-164] are less than 10 nM and less than 10 nM.
In the case of `C[C@@H](C[C@H]1CC[C@]2(CC1)OC(=O)NN=C2c1cc(C#N)ccc1Br)NC(=O)C(=O)O` [Example 2-171], the inhibition at 10 µM at full-length human PLD1 (setting [3]) was 12%; on full-length human PLD1 (setting [4]) it was 12%; at full-length human PLD2 (setting [5]) it was 23%; on full-length human PLD2 (setting [6]), 23%.
Consider `C[C@@H](CN1CCC2(CC1)OC(=O)NN=C2c1ccc(F)cc1Br)NC(=O)c1cc2cc(F)ccc2[nH]1` [Example 2], for which the IC50 was 20 nM at full-length human PLD1 (setting [7]) and less than 10 nM on full-length human PLD2 (setting [8]).
The corresponding values for `Cc1cc(C(=O)N[C@@H](C)CN2CCC3(CC2)OC(=O)NN=C3c2ccc(F)cc2Br)[nH]n1` [Example 3] are 27 nM and less than 10 nM.
The corresponding values for `C[C@@H](C[C@H]1CC[C@]2(CC1)OC(=O)NN=C2c1ccc(F)cc1)NC(=O)c1cc2cc(F)ccc2[nH]1` [Example 4] are 36 nM and 11 nM.
Turning to `Cc1cc(C(=O)N[C@@H](C)C[C@H]2CC[C@]3(CC2)OC(=O)NN=C3c2ccc(F)cc2)[nH]n1` [Example 5], the figures for the IC50 on full-length human PLD1 (setting [7]) and on full-length human PLD2 (setting [8]) were 164 nM and 171 nM, respectively.
The corresponding values for `CNC(=O)C(=O)N[C@@H](C)C[C@H]1CC[C@]2(CC1)OC(=O)NN=C2c1ccc(F)cc1` [Example 6] are 69 nM and 120 nM.
Consider `C[C@@H](C[C@H]1CC[C@]2(CC1)OC(=O)NN=C2c1ccc(F)cc1)NC(=O)c1cc2ccccc2o1` [Example 7], for which the IC50 at full-length human PLD1 (setting [7]) was determined as 30 nM; on full-length human PLD2 (setting [8]), 44 nM.
`C[C@@H](C[C@H]1CC[C@]2(CC1)OC(=O)NN=C2c1ccc(S(C)(=O)=O)cc1)NC(=O)c1cc2cc(F)ccc2[nH]1` [Example 8]: the IC50 at full-length human PLD1 (setting [7]) came to 30 nM; on full-length human PLD2 (setting [8]), 10 nM.
Consider `Cc1cc(C(=O)N[C@@H](C)C[C@H]2CC[C@]3(CC2)OC(=O)NN=C3c2ccc(S(C)(=O)=O)cc2)[nH]n1` [Example 9], for which the IC50 was 83 nM on full-length human PLD1 (setting [7]) and 56 nM on full-length human PLD2 (setting [8]).
For the compound `CNC(=O)C(=O)N[C@@H](C)C[C@H]1CC[C@]2(CC1)OC(=O)NN=C2c1ccc(S(C)(=O)=O)cc1` [Example 10], the IC50 at full-length human PLD1 (setting [7]) is 92 nM; on full-length human PLD2 (setting [8]), 106 nM.
In the case of `CC(=O)N[C@@H](C)C[C@H]1CC[C@]2(CC1)OC(=O)NN=C2c1ccc(F)cc1Br` [Example 11], the IC50 on full-length human PLD1 (setting [7]) was 228 nM; on full-length human PLD2 (setting [8]), 394 nM.
For `Cc1cc(C(=O)N[C@@H](C)C[C@H]2CC[C@]3(CC2)OC(=O)NN=C3c2ccc(F)cc2Br)[nH]n1` [Example 12], in that order: less than 10 nM and less than 10 nM.
Take `C[C@@H](C[C@H]1CC[C@]2(CC1)OC(=O)NN=C2c1ccc(F)cc1Br)NC(=O)c1cc2cc(F)ccc2[nH]1` [Example 13]: the figures for the IC50 at full-length human PLD1 (setting [7]) and on full-length human PLD2 (setting [8]) were 36 nM and less than 10 nM, respectively.
The corresponding values for `CNC(=O)C(=O)N[C@@H](C)C[C@H]1CC[C@]2(CC1)OC(=O)NN=C2c1ccc(F)cc1Br` [Example 14] are 10 nM and less than 10 nM.
For `C[C@@H](C[C@H]1CC[C@]2(CC1)OC(=O)NN=C2c1cccnc1)NC(=O)c1cc2cc(F)ccc2[nH]1` [Example 15], in that order: 25 nM and less than 10 nM.
The corresponding values for `Cc1cc(C(=O)N[C@@H](C)C[C@H]2CC[C@]3(CC2)OC(=O)NN=C3c2cccnc2)[nH]n1` [Example 16] are 926 nM and 968 nM.
Regarding `CNC(=O)C(=O)N[C@@H](C)C[C@H]1CC[C@]2(CC1)OC(=O)NN=C2c1cccnc1` [Example 17], the values for the IC50 at full-length human PLD1 (setting [7]) and on full-length human PLD2 (setting [8]) were 816 nM and 1040 nM, respectively.
The corresponding values for `C[C@@H](C[C@H]1CC[C@]2(CC1)OC(=O)NN=C2c1ccc(F)cc1Br)NC(=O)c1cc2ccccc2o1` [Example 19] are 17 nM and 10 nM.
For `CC(C)C(=O)N[C@@H](C)C[C@H]1CC[C@]2(CC1)OC(=O)NN=C2c1ccc(F)cc1Br` [Example 20], in that order: 1650 nM and 3770 nM.
The corresponding values for `C[C@@H](C[C@H]1CC[C@]2(CC1)OC(=O)NN=C2c1ccc(F)cc1Br)NC(=O)C1CC1` [Example 21] are 307 nM and 346 nM.
In the case of `Cc1cc(C(=O)N[C@@H](C)C[C@H]2CC[C@]3(CC2)OC(=O)NN=C3c2ccc(Br)cc2)[nH]n1` [Example 22], the IC50 was 66 nM at full-length human PLD1 (setting [7]) and 49 nM at full-length human PLD2 (setting [8]).
For `CNC(=O)C(=O)N[C@@H](C)C[C@H]1CC[C@]2(CC1)OC(=O)NN=C2c1ccc(Br)cc1` [Example 23], in that order: 39 nM and 51 nM.
On to `CNC(=O)C(=O)N[C@@H](C)C[C@H]1CC[C@]2(CC1)OC(=O)NN=C2c1cccc(Br)c1` [Example 24], for which the IC50 is 41 nM on full-length human PLD1 (setting [7]) and 31 nM on full-length human PLD2 (setting [8]).
The corresponding values for `Cc1cc(C(=O)N[C@@H](C)C[C@H]2CC[C@]3(CC2)OC(=O)NN=C3c2cccc(Br)c2)[nH]n1` [Example 25] are 108 nM and 101 nM.
For the compound `CNC(=O)C(=O)N[C@@H](C)C[C@H]1CC[C@]2(CC1)OC(=O)NN=C2c1ccccc1Br` [Example 26], the IC50 on full-length human PLD1 (setting [7]) and on full-length human PLD2 (setting [8]) was less than 10 nM in each case.
In the case of `Cc1cc(C(=O)N[C@@H](C)C[C@H]2CC[C@]3(CC2)OC(=O)NN=C3c2ccccc2Br)[nH]n1` [Example 27], the values for the IC50 on full-length human PLD1 (setting [7]) and on full-length human PLD2 (setting [8]) were 14 nM and 13 nM, respectively.
For `C[C@@H](C[C@H]1CC[C@]2(CC1)OC(=O)NN=C2c1ccc(F)cc1Br)NC(=O)[C@@H](C)O` [Example 28], in that order: 341 nM and 303 nM.
